This is an account of results in patent US5798387A, “Amino acid derivatives” (Zaidan Hojin Biseibutsu Kagaku Kenkyu Kai, priority 1992, dated 1998).

For one assay, the system named is T cells. The assay can be described thus: T cell proliferation (Test 1), thymidine uptake of Concanavalin A-treated T cells. Format: cell-based, rat (female Fisher 344). Conditions: Rattus norvegicus, 72 h, 3 days, untreated cells = 100, read-out: Rate of stimulating proliferation of T cells. From the text:
Effects of the novel amino acid derivatives of the general formula (I) on the proliferation of T cells were investigated by the following procedure.
The spleens, which had been excised in sterility from female Fisher 344 rats (12-16 weeks old, purchased from CHARLES RIVER JAPAN, INC), were squeezed in RPMI 1640 medium (a product of NISSUI PHARMACEUTICAL CO., LTD.) supplemented with 10% of fetal bovine serum, followed by passage of the resulting cell suspension through a column containing nylon wool fibres, whereby a cell suspension containing an abundant amount of T cells was obtained. This cell suspension was diluted to a level of 1×10^6 cells/ml with addition of a medium of the same composition as above. The cell-containing medium so obtained was then added with 5 μg/ml of Concanavalin A (product of Pharmacia AB), followed by incubation at 37° C. for 4 hours. Four hours later, α-methylmannoside was added to the incubated medium to give a concentration of 20 mg/ml of α-methylmannoside. After stirring the medium, cells were separated and collected therefrom by centrifugation. The collected cells were suspended at a level of 3×10^6 cells/ml in a medium of the same composition as above, followed by placing the resulting cell suspension in 100 μl portions in a 96-well microplate.
Novel amino acid derivatives at various concentrations, which are shown in Table 4, were incorporated in an amount of 100 μl as the test compounds to the respective cell suspensions in the plate, followed by incubation at 37° C. for 3 days in an incubator under air atmosphere containing 5% of carbon dioxide. Meanwhile, eighteen hours before the completion of the incubation, a solution of 10μ Ci/ml of radioactively labeled thymidine (Thymidine "6-^3 H", a product of NEN Company) was added in an amount of 10 μl to the cell suspensions under incubation. The cells after the incubation were collected on a filter paper by means of a cell harvester, washed with water and radioactivity of the cells so treated was determined by a liquid scintillation counter. The determined values of the radioactivity of the cells as treated with the test compounds were evaluated on the assumption that the determined value of the radioactivity of the cells untreated, namely tested without addition of the test compound during the incubation of cells was amounting to 100. The so evaluated values are recorded and expressed as rates (%) for stimulating the T cell proliferation which show such extent that the proliferation of T cells is enhanced by the new amino acid derivative of this invention.

Assay [1] concerns Ehrlich ascites carcinoma. The assay can be described thus: Antitumor activity (Test 2), Ehrlich ascites carcinoma transplanted subcutaneously. The conditions noted are these: 5 mg/kg i.p. daily for 7 days; tumor weight on day 15 vs control. It is filed as in vivo, mouse (ICR). As to the method:
The antitumor activity of some amino acid derivatives of the general formula (I) according to this invention was tested in the following manner. A suspension of Ehrlich ascites carcinoma cells was subcutaneously injected to one of the inguinal parts of each ICR mouse to transplant 4×10^6 cells/mouse. From the seventh day after the transplantation, a test compound was intraperitoneally injected daily for 7 days at a dose of 50, 5 or 0.5 mg/kg (4 mice per treated group of mice, but 8 mice per untreated control group of mice). On the fifteenth day after the transplantation, a solid cancer was cut out and weighed. A reduction in the weight of solid cancers of the mice in each treated group of mice which was evaluated in comparison with the control group is expressed as rate of inhibiting the tumor growth (%) in Table 5 below.

The subject of assay [2] is bone-marrow cells (hematopoietic stem cells; megakaryocytes). The assay can be described thus: Formation of colonies of megakaryocytes from bone-marrow cells (Test 3). The conditions noted are these: Mus musculus, Bone marrow cell, 168 h; concentration of test compound 50 μg/ml; 7 days; no addition = 100; read-out: Number of colonies of megakaryocytes. It is filed as cell-based, mouse (male BALB/c). As to the method:
The activity of some amino acid derivatives of the general formula (I) according to this invention which induces proliferation of hematopoietic stem cells was tested in the following manner. Thus, bone-marrow cells had been prepared from the femurs of male BALB/c mouse (6-7 weeks old), and then a suspension of the bone-marrow cells was overlayed on "Lympholite M" (product of Cefalane Company), followed by centrifugation under 1500 g for 20 minutes. A lymphocyte fraction was collected, washed three times with "alpha MEM medium" (product of Gibco Company), and then diluted and suspended in the same medium as above to give a lymphocyte concentration of 7×10^6 cells/ml.
[…] of the resulting cell suspension, 50 μl of a solution of a test compound in physiological saline, 50 μl of a culture supernatant of WEHI-3, 100 μl of phosphate-buffered physiological saline, 50 μl of a pre-deionized 10% bovine serum albumin solution, 50 μl of an L-asparagin solution (200 μg/ml), 50 μl of a calcium chloride solution (260 μg/ml) and 50 μl of bovine plasma containing sodium citrate were combined together. The liquid mixture so obtained was poured in portions of 50 μl/well on a slide glass ("Glass Ware", product of Flaw Laboratory Company). After coagulation of the mixture, the slide glass bearing the coagulated masses was immersed in 10% FBS-added alpha MEM medium, followed by incubation at 37° C. under 5% CO2 for 7 days.
After completion of the incubation, the cells on the slide glass were immobilized with a 25% glutaraldehyde solution. In accordance with the methods proposed by Nagasawa et al. ["Zoketsu Kan Saibo (Hematopoietic Stem Cells)" compiled by takahisa Shimamaro, page 128 (The Nishimura Shoten Co., Ltd.)], the immobilized cells were stained for acetylcholinesterase activity which is specific for mouse megakaryocytes, and also the cells were stained with Mayer hematoxylin. Each cell culture so stained was dried and then sealed with a sealing agent. Under a microscope of ×100 magnification, the number of megakaryocytic colonies (i.e., the number of cells stained in an orange color) per well was counted.

Regarding `CSCC(NC(=O)C(O)C(C)C(C)O)C(=O)OCc1ccccc1` (centres unmarked) [Compound 19], in the assay with T cells (concentration of compound 0.1 μg/ml), the activity at 0.1 µg/mL was 289%. Further, the activity at 1 µg/mL in the assay with T cells (concentration of compound 1 μg/ml) was 310%. Moreover, the activity at 10 µg/mL in the assay with T cells (concentration of compound 10 μg/ml) is 251%. For the same compound, in assay [1], the “Tumor growth inhibiting rate” value is recorded as 12%. Further, in assay [2], the activity at 50 µg/mL came to 156%.
